Where two headings read alike, the source gives them in different places.
Tested on: HCMV
Assay type: cell-based
Protocol: In example herpesvirus PRM assay methods shown herein, cell pellets were lysed in 2% SDS, 100 mM NaCl, 0.5 mM EDTA, 50 mM Tris, pH 8.2, and 50 μg of protein was reduced and alkylated with 25 mM TCEP and 50 mM CAM respectively for 20 min at 70° C. Proteins were then precipitated via methanol chloroform precipitation (Wessel & Flugg, Anal Biochem. 138(1):141-143, 1984), resuspended in 50 mM HEPES, pH 8.2 and digested overnight with trypsin (50:1 protein:enzyme w/w ratio). Digested peptides were desalted by SDB-RPS StageTip as previously described (Lum et al., Cell Syst., 7(6):[…], 2018; Greco et al., Methods Mol Biol 1410:39-63, 2016; Federspiel & Cristea, Methods Mol Biol., 1977:115-143, 2019).
Peptides (1.0 μg on column) were analyzed by LC-MS/MS using a Dionex Ultimate 3000 UHPLC coupled online to an EASYSpray ion source and a Q Exactive HF. Peptides were separated on an EASYSpray C18 column (75 μm×25 cm) heated to 50° C. using a linear gradient of 5% B to 32% B over 60 min at a flow rate of 250 nL/min and were ionized at 1.7 kv. Mobile phase A consisted of 0.1% FA in H2O and mobile phase B consisted of 0.1% FA, 2.9% H2O in ACN.
The PRM method was controlled by a peptide inclusion list with retention time windows of 6 min for selected precursor ions.
The PRM assay was developed and analyzed using the open-source software Skyline (Maclean et al., Bioinformatics 26(7):966-968, 2010). Summed area under the curve of 3-4 transitions per peptide was used for quantitation. Targeted peptides were normalized to host protein loading control peptides. Peptide values for each sample were scaled to the average of each peptide across all runs. The average of multiple peptides was used as the inferred value for the protein measurement when more than one peptide was quantified (Federspiel et al., PLoS Biol. 17(9):e3000437. Doi: 10.1371/journal.pbio.3000437). PRM quantitation data were graphed using the Python Seaborn and Matplotlib libraries.
MRC5 primary human fibroblasts (HFs) (ATCC CCL-171) were used as the model system for HSV-1 and HCMV infections and were cultured in complete growth medium (DMEM supplemented with 10% fetal bovine serum and 1% penicillin-streptomycin antibiotics) at 37° C. and 5% CO2. iSLK.219 cells harboring latent KSHV (a gift from Dr. Britt Glaunsinger, University of California, Berkeley) were grown in complete growth medium supplemented with 500 μg/ml hygromycin (ThermoFisher Scientific, 10687010) at 37° C. and 5% CO2. All cells were used for experiments within a maximum of 10 passages.
Wild type HSV-1 strain 17+ (a gift from Beate Sodeik, Hannover Medical School, Hannover, Germany) was propagated as previously described (Diner et al., 2015). Briefly, PO stocks were generated by electroporating pBAC-HSV-1 into U-2 OS cells. […] In a similar manner, wild type HCMV strain AD169 was produced from BAC electroporation into HFs and working stocks were propagated by infecting HFs at a low level. In both cases, cell-associated virus was released by sonication, combined with supernatant virus, then concentrated by ultracentrifugation (20,000 rpm, 2 hours, 4° C. with SW28 swinging bucket rotor [Beckman Coulter]) over a 10% ficoll (HSV-1) or 20% sorbitol (HCMV) cushion. Virus stock titers were determined by plaque assay for HSV-1 or tissue culture infectious dose (TCID50) for HCMV and infections were performed at a multiplicity of infection (MOI) of 3.
12 hours prior to virus infection or reactivation, cells were treated with either the small molecule drug or DMSO/PBS control at an equivalent volume. […] For infection cycles lasting longer than 24 hours, small molecule drugs were re-added to the cell culture medium every 24 hours. Upon collection, cells were rinsed with PBS, scraped into a microcentrifuge tube, pelleted by centrifugation, and rinsed again with PBS.

Nc1ccn(C[C@@H](CO)OCP(=O)(O)O)c(=O)n1 [CDV, cidofovir]
UL80 (P16753) protein, numerical value of heatmap FIG. 6C (L, timepoint 96): 1.017 | UL82 (P06726) protein, numerical value of heatmap FIG. 6C (L, timepoint 96): 0.9932 | UL87 (P16730) protein, numerical value of heatmap FIG. 6C (L, timepoint 96): 0.3187 | UL88 (P16731) protein, numerical value of heatmap FIG. 6C (L, timepoint 96): 0.6827 | UL94 (P16800) protein, numerical value of heatmap FIG. 6C (L, timepoint 96): 0.8521 | UL99 (P13200) protein, numerical value of heatmap FIG. 6C (L, timepoint 96): 0.9111 | UL103 (P16734) protein, numerical value of heatmap FIG. 6C (L, timepoint 96): 0.899 | UL117 (P16770) protein, numerical value of heatmap FIG. 6C (L, timepoint 96): 0.5858 | gH (P12824) protein, numerical value of heatmap FIG. 6C (L, timepoint 96): 1.268 | gL (P16832) protein, numerical value of heatmap FIG. 6C (L, timepoint 96): 0.676 | gM (P16733) protein, numerical value of heatmap FIG. 6C (L, timepoint 96): 0.9966 | gN (P16795) protein, numerical value of heatmap FIG. 6C (L, timepoint 96): 0.6947 | sp|P16809|IR11_HCMVA (P16809) protein, numerical value of heatmap FIG. 6C (L, timepoint 96): 0.6961 | CVC1 (P16799) protein, numerical value of heatmap FIG. 6C (L, timepoint 120): 0.8775 | GO (P16750) protein, numerical value of heatmap FIG. 6C (L, timepoint 120): 0.821 | MCP (P16729) protein, numerical value of heatmap FIG. 6C (L, timepoint 120): 1.664 | SCP (Q7M6N6) protein, numerical value of heatmap FIG. 6C (L, timepoint 120): 1.225 | TRM2 (P16792) protein, numerical value of heatmap FIG. 6C (L, timepoint 120): 1.244 | UL22A (P16845) protein, numerical value of heatmap FIG. 6C (L, timepoint 120): 1.64 | UL25 (P16761) protein, numerical value of heatmap FIG. 6C (L, timepoint 120): 1.445 | UL29 (P16764) protein, numerical value of heatmap FIG. 6C (L, timepoint 120): 1.329 | UL30 (P16765) protein, numerical value of heatmap FIG. 6C (L, timepoint 120): 0.9125 | UL31 (P16848) protein, numerical value of heatmap FIG. 6C (L, timepoint 120): 1.094 | UL43 (P16781) protein, numerical value of heatmap FIG. 6C (L, timepoint 120): 1.1093 | UL52 (P16793) protein, numerical value of heatmap FIG. 6C (L, timepoint 120): 1.493 | UL76 (P16725) protein, numerical value of heatmap FIG. 6C (L, timepoint 120): 0.7396 | UL79 (P16752) protein, numerical value of heatmap FIG. 6C (L, timepoint 120): 0.8598 | UL80 (P16753) protein, numerical value of heatmap FIG. 6C (L, timepoint 120): 1.249 | UL82 (P06726) protein, numerical value of heatmap FIG. 6C (L, timepoint 120): 1.469 | UL87 (P16730) protein, numerical value of heatmap FIG. 6C (L, timepoint 120): 0.5716 | UL88 (P16731) protein, numerical value of heatmap FIG. 6C (L, timepoint 120): 0.8088 | UL94 (P16800) protein, numerical value of heatmap FIG. 6C (L, timepoint 120): 1.266 | UL99 (P13200) protein, numerical value of heatmap FIG. 6C (L, timepoint 120): 1.628 | UL103 (P16734) protein, numerical value of heatmap FIG. 6C (L, timepoint 120): 1.157 | UL117 (P16770) protein, numerical value of heatmap FIG. 6C (L, timepoint 120): 0.837 | gH (P12824) protein, numerical value of heatmap FIG. 6C (L, timepoint 120): 1.57 | gL (P16832) protein, numerical value of heatmap FIG. 6C (L, timepoint 120): 1.175 | gM (P16733) protein, numerical value of heatmap FIG. 6C (L, timepoint 120): 1.476 | gN (P16795) protein, numerical value of heatmap FIG. 6C (L, timepoint 120): 1.396 | sp|P16809|IR11_HCMVA (P16809) protein, numerical value of heatmap FIG. 6C (L, timepoint 120): 0.7634 | TRX2 (P16728) protein, numerical value of heatmap FIG. 6C (LL, timepoint 24): 0.008754 | UL69 (P16749) protein, numerical value of heatmap FIG. 6C (LL, timepoint 24): 0.1676 | UL70 (P17149) protein, numerical value of heatmap FIG. 6C (LL, timepoint 24): 0.06824 | UL83 (P06725) protein, numerical value of heatmap FIG. 6C (LL, timepoint 24): 0.03389 | UL132 (P69338) protein, numerical value of heatmap FIG. 6C (LL, timepoint 24): 0.04048 | US15 (P09718) protein, numerical value of heatmap FIG. 6C (LL, timepoint 24): 0.5879 | DUT (P16824) protein, numerical value of heatmap FIG. 6C (LL, timepoint 48): 0.2905 | TRX1 (P16783) protein, numerical value of heatmap FIG. 6C (LL, timepoint 48): 0.01277 | TRX2 (P16728) protein, numerical value of heatmap FIG. 6C (LL, timepoint 48): 0.01952 | UL24 (P16760) protein, numerical value of heatmap FIG. 6C (LL, timepoint 48): 0.107 | UL40 (P16780) protein, numerical value of heatmap FIG. 6C (LL, timepoint 48): 0.3905

Source: patent US20240027453A1, “METHOD FOR DETECTION AND QUANTITATIVE MONITORING OF INFECTIONS WITH HERPESVIRUSES” (The Trustees of Princeton University, priority 2020, published 2024)
